pIC50, pKi: −log10 of the molar value. Where a name gives a salt, the structure may show the parent alone. Read-outs that look alike come from different tables or passages of the source.
How the values were obtained:
MAO-B = MAO-B (Rattus norvegicus (Rat), UniProt P19643); test: In vitro MAO-B enzyme activity assay (radioenzymatic, rat brain mitochondria); assay type: biochemical; settings: 14C-PEA 0.5 μM
Protocol: Male Wistar rats (Harlan, Italy weighing 175-200 g) were sacrificed under light anaesthesia and brains were rapidly removed and homogenized in 8 volumes of ice-cold 0.32 M sucrose buffer containing 0.1 M EDTA, pH 7.4. The crude homogenate was centrifuged at 2220 rpm for 10 minutes and the supernatant recovered. The pellet was homogenized and centrifuged again. The two supernatants were pooled and centrifuged at 9250 rpm for 10 minutes at +4° C. The pellet was resuspended in fresh buffer and centrifuged at 11250 rpm for 10 minutes at +4° C. The resulting pellet was stored at −80° C. The enzyme activity was assessed with a radioenzymatic assay using the substrate ^14C-phenylethylamine (PEA) specific for MAO-B. The mitochondrial pellet (500 μg protein) was resuspended in 0.1 M phosphate buffer (pH 7.4). 200 μl of the suspension were added to a 50 μl solution of the test compound or buffer, and incubated for 30 min at 37° C. (preincubation) then the substrate (50 μl) was added. The incubation was carried out for 10 minutes at 37° C. (^14C-PEA, 0.5 μM). The reaction was stopped by adding 0.2 ml of perchloric acid. After centrifugation, the deaminated metabolites were extracted with 3 ml of toluene and the radioactive organic phase containing the neutral and/or acidic metabolites formed as a result of MAO-B activity was measured by liquid scintillation spectrometry at 90% efficiency. The MAO-B activity was expressed as nmoles of substrate transformed/mg protein/min.

mice = test: Maximal electroshock test (MES) in mice; assay type: in vivo; settings: for ED50: Mus musculus, po, read-out: ED50 (mg/kg p.o.)
From the text: The maximal electroshock test (MES) is used commonly in the screening of anti-epileptic drugs in rodent models.
Animals and Apparatus: Male CD1 mice weighing 25 g were used. The procedure described by White et al. (White H. S., Woodhead J. H., Franklin M. R., Swinyard E. A., and Wolf H. H. Antiepileptic Drugs (1995) 4th ed: 99-110, Raven Press, Ltd., New York) was followed. An Ugo Basile electroconvulsive generator (Model ECT UNIT 7801) was used to deliver an electrical stimulus sufficient to produce a hindlimb tonic extensor response in at least 97% of control animals. The stimulus was delivered intra-aurally through clip electrodes in mice (0.7 s of a 40 mA shock, with a pulse train of 80 Hz having a pulse duration of 0.4 ms). The acute effect of compounds administered intraperitoneally (i.p.), subcutaneously (s.c.), intravenously (i.v.) or orally (p.o.) 5-120 minutes before MES induction were examined and compared with a vehicle control group. Ten mice were studied per group. Complete suppression of the hindlimb tonic extensor component of seizures was taken as evidence of anticonvulsant activity.
The compounds of the invention were administered p.o. or i.v., at the doses of 0.1-100 mg/kg.

TTXs sodium channels = test: TTXs-sodium channel influx assay (fluorescence, ND7/23 cell line); assay type: cell-based, rat; settings: ND7/23 cells, veratridine 100 μM; read-out: Na+ influx IC50
Protocol: ND7/23 rat dorsal root ganglion-derived cell line endogenously expresses a mixed population of TTXs sodium channels. These cells lack of TTXr sodium channels as shown by the absence of their respective transcripts.
ND7/23 cells were grown in DMEM supplemented with 10% FBS and 1 mM sodium piruvate. The cells were seeded at 50,000 cells/well on 96 poly-L-lysine-coated plates and further incubated for 18-24 h before use.
The Membrane Potential Kit Assay (Molecular Devices), based on a negatively charged fluorescent dye able to monitor changes in membrane potential caused by the sodium influx due to the channel opening, was used for the assay.
Cells were incubated with the dye loading for 30 minutes at 25° C. Then, 100 nM of the toxin Anemonia sulcata (used as enhancer of the channel opener response) alone or in the presence of TTX (as reference standard) or test compound were added for further 15 minutes.
The fluorescence (excitation:530 nm, emission: 565 nm wavelength) was measured before and after (40-45 s) the automated injection of the sodium channel opener veratridine (100 μM) using a Victor plate reader (Perkin Elmer).
(§1) The inhibition curves were calculated from 5 concentrations, each in triplicate, and the IC50 determined using linear regression analysis.

L-type calcium channels = test: Calcium channel influx assay (fluorescence, AtT20 cell line); assay type: cell-based, mouse; settings: AtT20 cells, 100 mM KCl depolarization; read-out: Ca++ influx IC50
Protocol: AtT20/D16v-F2 mouse pituitary tumour cell line preferentially expresses L-type calcium channels.
AtT20 cells were grown in DMEM with 10% of FBS, 4 mM glutamine. The cells were seeded at 200,000 cells/well on 96 poly-L-lysine-coated plates and further incubated for 18-24 h, before use.
The Ca^++ Kit Assay (Molecular Devices), which is based on a fluorescent calcium indicator to detect the calcium influx determined by depolarizing conditions, was used for the assay.
Cells were incubated with the calcium dye loading for 30 min at 37° C. Then, ω-conotoxin alone (1 μM) or in presence of nifedipine (as reference standard) or test compound were added for further 15 min.
The fluorescence (excitation: 485-emission: 535 nm wavelength) was measured before and after (30-40 sec) the automated injection of 100 mM KCl depolarizing solution using a Victor plate reader (Perkin Elmer).
as §1

[1] = tested on: Na+ currents in ND7/23 cells (TTX-s); test: Patch clamp evaluation of Na+ currents blockade in ND7/23 cell line; assay type: cell-based, rat; settings: for pKi: calculated from Kr and Kdep, read-out: Ki (apparent affinity for the inactivated state)
Protocol: ND7/23 (ECACC No 92090903 from SIGMA), is a hybrid cell line derived from a neonatal rat DRG fused with the mouse neuroblastoma N18Tg2 (Wood et al., Proc. Biol. Sci., 1990 September, 241(1302), 187-194).
The molecular identity of the channels responsible for the TTX-s conductance is unknown but it is presumed that TTX-s conductance arises from the activity of a mixed population of sodium channels.
Cells are routinously maintained in DMEM with 10% of FBS, 4 mM glutamine, 1 mM sodium piruvate. The day before the patch clamp experiment cells are detached and seeded at 100,000 cells/polylysine-coated 35 mm Petri dish.
Experiments on ND7/23 cells were carried out using standard whole cell patch clamp methods (Hamill et al., Pfugers Arch., 1981 August, 391(12), 85-100), as described in previous section.
To test the effect of compounds on sodium currents in ND7/23 cells, holding membrane potential was set at −90 mV, then a two step protocol was used to determine the voltage dependence of the block. Sodium currents were activated by a 30 ms step pulse to 0 mV (test pulse) from a 2000 ms preconditioning potential of −110 mV (resting condition) and a potential of ˜−70 mV (half maximal steady-state condition).
Tonic block of resting and depolarized currents at a given drug concentration was calculated as the difference between the peak Na^+ current in the control external bath solution and peak currents with the test substance divided by control peak.
Drug concentration-inhibition curves were obtained by plotting tonic blocks in the resting and depolarized condition, versus drug concentrations. Dose-response curves were fitted to the tonic block data, according to the logistic equation: y=A2+(A1−A2)/[1+(x/IC50)p]. A1 and A2 are fixed values of 0 and 1 corresponding to 0 and 100% current inhibition, x is the drug concentration, IC50 is the drug concentration resulting in 50% current inhibition and p is the corresponding slope factor.
The apparent affinity of drug for the inactivated state (Ki) was calculated according to the equation 1/Kdep=h/Kr+(1−h)/Ki where Kr is the affinity of drug for the resting/closed state; Kdep is the IC50 in the depolarized condition, h and (1−h) are the fractions of channels present at the rest. and dep. potentials, respectively.
Control bath solution contained (mM): NaCl 80, Choline HCl 40, CaCl2 1.3, MgCl2 2, KCl 2, CdCl2 0.4, NiCl2 0.3, TEACl 20, Hepes 10, Glucose 10.
Internal pipette solution consisted of (mM): CsF 65, CsCl 65, NaCl 10, CaCl2 1.3, MgCl2 2, Hepes 10, EGTA 10, MgATP 1.
Compounds were dissolved as stock solutions (20 mM) in DMSO. They were diluted to the final concentrations in the external solution.

[2] = read-out: IC50 depolarized, preconditioning potential ~-70 mV
[3] = read-out: IC50 resting (Kr), preconditioning potential -110 mV

Sequence of MAO-B (P19643 whole entry): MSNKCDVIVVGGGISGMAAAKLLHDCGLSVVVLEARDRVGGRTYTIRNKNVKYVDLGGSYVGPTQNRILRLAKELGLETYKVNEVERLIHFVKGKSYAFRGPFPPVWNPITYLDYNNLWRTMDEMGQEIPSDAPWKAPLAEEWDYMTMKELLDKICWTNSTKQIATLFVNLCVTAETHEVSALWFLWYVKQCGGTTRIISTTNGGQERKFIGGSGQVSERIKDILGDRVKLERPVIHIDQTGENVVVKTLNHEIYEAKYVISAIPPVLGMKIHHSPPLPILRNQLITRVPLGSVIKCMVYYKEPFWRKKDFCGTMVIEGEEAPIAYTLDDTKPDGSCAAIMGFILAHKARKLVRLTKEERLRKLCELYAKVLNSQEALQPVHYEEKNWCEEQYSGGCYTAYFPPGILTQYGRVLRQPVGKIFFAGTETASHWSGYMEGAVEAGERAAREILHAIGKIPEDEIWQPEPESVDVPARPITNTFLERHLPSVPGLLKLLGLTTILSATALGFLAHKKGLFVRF

Compound: CCCCOc1cccc(CCNCC(=O)NC)c1.Cl [2-[2-(3-Butoxyphenyl)-ethylamino]-N-methylacetamide hydrochloride]
- pIC50 (MAO-B): 3.96
- ED50 (mice; mice, MES, p.o.): 12.1 mg/kg
- % protection 10 mg/kg p.o. (mice; mice, MES): 30%

Compound: CCCCOc1cc(CCNCC(=O)N(C)C)ccc1OC [2-[2-(3-Butoxy-4-methoxyphenyl)-ethylamino]-N,N-dimethylacetamide hydrochloride]
- pIC50 (MAO-B): < 3.52

Compound: CCCCOc1cccc(CCNCC(=O)N(CC)CC)c1 [2-[2-(3-Butoxyphenyl)-ethylamino]-N,N-diethylacetamide hydrochloride]
- pIC50 (TTXs sodium channels): 6.22
- pIC50 (L-type calcium channels): 5.17

Compound: CCCCCOc1cccc(CCNCC(=O)N(C)C)c1.Cl [2-[2-(3-Pentyloxyphenyl)-ethylamino]-N,N-dimethylacetamide hydrochloride]
- pIC50 (TTXs sodium channels): 6.30
- pIC50 (L-type calcium channels): 5.08
- pKi [1]: 6.30
- pIC50 [1, 2]: 6.15
- pIC50 [1, 3]: 5.54
- ED50 (mice): 2.8 mg/kg
- % protection 10 mg/kg p.o. (mice; mice, MES): 100%

Compound: CCCCCCOc1cccc(CCNCC(=O)N(C)C)c1.Cl [2-[2-(3-Hexyloxyphenyl)-ethylamino]-N,N-dimethylacetamide hydrochloride]
- pIC50 (TTXs sodium channels): 6.30
- pIC50 (L-type calcium channels): 5.40
- ED50 (mice; mice, MES, p.o.): 4.6 mg/kg
- % protection 10 mg/kg p.o. (mice; mice, MES): 100%

Compound: CCCCOc1ccc(F)c(CCNCC(=O)N(C)C)c1F.Cl [2-[2-(3-Butoxy-2,6-difluorophenyl)-ethylamino]-N,N-dimethylacetamide hydrochloride]
- pIC50 (TTXs sodium channels): 5.59
- pIC50 (MAO-B): < 3.52
- ED50 (mice; mice, MES, p.o.): 2 mg/kg
- % protection 10 mg/kg p.o. (mice; mice, MES): 100%

Compound: CCCCOc1cccc(CCNCC(=O)N(C)C)c1F [2-[2-(3-Butoxy-2-fluorophenyl)-ethylamino]-N,N-dimethylacetamide]
- pKi [1]: 6.00
- pIC50 [1, 2]: 5.77
- pIC50 [1, 3]: 4.89

Compound: CCCCOc1cccc(CCNC(C)(C)C(=O)N(C)C)c1 [2-[2-(3-Butoxyphenyl)-ethylamino]-2,N,N-trimethylpropanamide hydrochloride]
- pIC50 (TTXs sodium channels): 6.15

Compound: CCCCOc1cc(CCNCC(=O)N(C)C)ccc1C.Cl [2-[2-(3-Butoxy-4-methylphenyl)-ethylamino]-N,N-dimethylacetamide hydrochloride]
- pIC50 (TTXs sodium channels): 6.15
- pIC50 (L-type calcium channels): 5.00
- % protection 10 mg/kg p.o. (mice; mice, MES): 40%

Compound: CCCCOc1cccc(CCNCC(=O)N(CCC)CCC)c1 [2-[2-(3-Butoxyphenyl)-ethylamino]-N,N-dipropylacetamide hydrochloride]
- pIC50 (TTXs sodium channels): 6.30
- pIC50 (L-type calcium channels): 5.96

Compound: CCCCOc1cccc(CCNCC(=O)N2CCCC2)c1 [2-[2-(3-Butoxyphenyl)-ethylamino]-1-pyrrolidin-1-yl-ethanone hydrochloride]
- pIC50 (TTXs sodium channels): 5.68

Compound: CN(C)C(=O)CNCCc1cccc(OCCCC(F)(F)F)c1 [2-{2-[3-(4,4,4-Trifluorobutoxy)phenyl]-ethylamino}-N,N-dimethylacetamide hydrochloride]
- pIC50 (L-type calcium channels): 5.03

Compound: CCCCOc1cccc(CCNC(C)C(=O)N(C)C)c1.Cl (stereo not shown) [2-[2-(3-Butoxyphenyl)-ethylamino]-N,N-dimethylpropanamide hydrochloride]
- pIC50 (TTXs sodium channels): 5.96
- pIC50 (MAO-B): < 3.52
- ED50 (mice; mice, MES, p.o.): 6.5 mg/kg
- % protection 10 mg/kg p.o. (mice; mice, MES): 60%

Compound: CCCCOc1cccc(CCNCC(=S)N(C)C)c1 [2-[2-(3-Butoxyphenyl)-ethylamino]-N,N-dimethylthioacetamide hydrochloride]
- pIC50 (TTXs sodium channels): 5.92
- pIC50 (L-type calcium channels): 5.12

Compound: CCCCCOc1cccc(CCNCC(=O)N(CCC)CCC)c1 [2-[2-(3-Pentyloxyphenyl)-ethylamino]-N,N-dipropylacetamide hydrochloride]
- pIC50 (TTXs sodium channels): 5.96
- pIC50 (L-type calcium channels): 5.16

Compound: CCCCOc1cccc(CCNCC(=O)N(CCCC)CCCC)c1 [2-[2-(3-Butoxyphenyl)-ethylamino]-N,N-dibutylacetamide hydrochloride]
- pIC50 (TTXs sodium channels): 5.92
- pIC50 (L-type calcium channels): 5.74

Compound: CCCCSc1cccc(CCNCC(=O)N(C)C)c1 [2-[2-(3-Butylthiophenyl)-ethylamino]-N,N-dimethylacetamide hydrochloride]
- pIC50 (L-type calcium channels): 5.14
